Experimental data reported in ChEMBL document CHEMBL1143589, “Effects of 5'-phosphate derivatives of 2-hexynyl adenosine and 2-phenylethynyl adenosine on responses of human platelets mediated by P2Y receptors” (J Med Chem, 2005).

Columns and labels:
Type in all cases: functional
[1] = Effect of compound on elevation of cAMP levels induced by 2 uM PGE1 at 10 uM
[2] = Platelet shape change and aggregation induced by the compound at 10 uM concentration
[3] = Effect of compound at 10 uM on platelet aggregation induced by 10 uM ADP
[4] = Platelet shape change and aggregation induced by the compound at 1 uM concentration
[5] = Effect of compound on elevation of cAMP levels induced by 2 uM PGE1 at 100 uM
[6] = Effect of compound at 100 uM on platelet aggregation induced by 10 uM ADP
[7] = Effect of compound on elevation of cAMP levels induced by 2 uM PGE1 at 1 uM
[8] = Platelet shape change and aggregation induced by the compound at 100 uM concentration
[9] = Effect of compound at 1 uM on platelet aggregation induced by 10 uM ADP
[10] = Inhibitory effect of ADP (10 uM) on PGE1 (2 uM)-induced increase in platelet cAMP levels at 100 uM concentration of compound
[11] = Effect of compound at 800 uM on platelet aggregation induced by 10 uM ADP
[12] = Inhibitory effect of ADP (10 uM) on PGE1 (2 uM)-induced increase in platelet cAMP levels at 1 uM concentration of compound
[13] = Inhibitory effect of ADP (10 uM) on PGE1 (2 uM)-induced increase in platelet cAMP levels at 800 uM concentration of compound
[14] = Inhibitory concentration of compound on platelet aggregation
[15] = Inhibitory effect of ADP (10 uM) on PGE1 (2 uM)-induced increase in platelet cAMP levels at 10 uM concentration of compound

`Nc1ncnc2c1ncn2[C@@H]1O[C@H](COP(=O)(O)OP(=O)(O)O)[C@@H](O)[C@H]1O` [ADENOSINE DIPHOSPHATE] gave an Activity [1] of 34 and a Light transmission [2] of 53%.

In the case of `CCCCC#Cc1nc(N)c2ncn(C3O[C@H](COP(=O)(O)OP(=O)(O)OP(=O)(O)O)[C@@H](O)[C@H]3O)c2n1` (stereo partly specified), the Activity [1] is reported as 35, the Activity [3] is reported as 90 and the Light transmission [2] is reported as 9%. It also gave a Light transmission [4] of 0%, an Activity [5] of 27 and an Activity [6] of 64. For the same compound, the Activity [7] was 59, the Light transmission [8] was 39% and the Activity [9] was 92.

Compound `Nc1nc(C#Cc2ccccc2)nc2c1ncn2C1O[C@H](COP(=O)(O)O)[C@@H](O)[C@H]1O` (stereo partly specified) has an Activity [3] of 92.8, an Inhibition [10] of 14.9% and an Activity [6] of 58.4. For the same compound, the Activity [11] was 0.2, the Inhibition [12] was 4.6% and the Activity [9] was 86. The Inhibition [13] was 74.4%, the IC50 [14] was 130 µM and the Inhibition [15] was 4.1%.

With `CCCCC#Cc1nc(N)c2ncn(C3O[C@H](COP(=O)(O)O)[C@@H](O)[C@H]3O)c2n1` (stereo partly specified) the Activity [3] was 54.4, the Inhibition [10] was 13.6% and the Activity [6] was 11.8. The Activity [11] was 0, the Inhibition [12] was 6.7% and the Activity [9] was 75.2. For the same compound, the Inhibition [13] was 58.2%, the IC50 [14] was 14 µM and the Inhibition [15] was 9.6%.

`Nc1nc(C#Cc2ccccc2)nc2c1ncn2[C@@H]1O[C@H](COP(=O)(O)OP(=O)(O)OP(=O)(O)O)[C@@H](O)[C@H]1O` gave an Activity [3] of 81.6, an Inhibition [10] of 5.7% and an Activity [6] of 46.6. It also gave an Activity [11] of 0.2, an Inhibition [12] of 1.6% and an Activity [9] of 81. It also gave an Inhibition [13] of 68.9%, an IC50 [14] of 85 µM and an Inhibition [15] of 1.6%.

In the case of `CCCCC#Cc1nc(N)c2ncn(C3O[C@H](COP(=O)(O)OP(=O)(O)O)[C@@H](O)[C@H]3O)c2n1` (stereo partly specified), the Activity [1] is reported as 50, the Activity [3] is reported as 99 and the Light transmission [2] is reported as 17%. It also gave a Light transmission [4] of 0%, an Activity [5] of 38 and an Activity [6] of 100. The Activity [7] was 58, the Light transmission [8] was 41% and the Activity [9] was 98.

`Nc1nc(C#Cc2ccccc2)nc2c1ncn2C1O[C@H](COP(=O)(O)OP(=O)(O)O)[C@@H](O)[C@H]1O` (stereo partly specified) showed an Activity [3] of 77.4, an Inhibition [10] of 4.1% and an Activity [6] of 43.2. For the same compound, the Activity [11] was 9.5, the Inhibition [12] was 1% and the Activity [9] was 81.5. It also gave an Inhibition [13] of 29.5%, an IC50 [14] of 60 µM and an Inhibition [15] of 2.6%.
